{"source": "ChEMBL document CHEMBL1201862", "about": "“PubChem BioAssay data set” (2004)", "key": {"[1]": {"biological_target": "T1, Histone-lysine N-methyltransferase NSD2 (Homo sapiens, UniProt O96028)", "T1 sequence (O96028 whole entry)": "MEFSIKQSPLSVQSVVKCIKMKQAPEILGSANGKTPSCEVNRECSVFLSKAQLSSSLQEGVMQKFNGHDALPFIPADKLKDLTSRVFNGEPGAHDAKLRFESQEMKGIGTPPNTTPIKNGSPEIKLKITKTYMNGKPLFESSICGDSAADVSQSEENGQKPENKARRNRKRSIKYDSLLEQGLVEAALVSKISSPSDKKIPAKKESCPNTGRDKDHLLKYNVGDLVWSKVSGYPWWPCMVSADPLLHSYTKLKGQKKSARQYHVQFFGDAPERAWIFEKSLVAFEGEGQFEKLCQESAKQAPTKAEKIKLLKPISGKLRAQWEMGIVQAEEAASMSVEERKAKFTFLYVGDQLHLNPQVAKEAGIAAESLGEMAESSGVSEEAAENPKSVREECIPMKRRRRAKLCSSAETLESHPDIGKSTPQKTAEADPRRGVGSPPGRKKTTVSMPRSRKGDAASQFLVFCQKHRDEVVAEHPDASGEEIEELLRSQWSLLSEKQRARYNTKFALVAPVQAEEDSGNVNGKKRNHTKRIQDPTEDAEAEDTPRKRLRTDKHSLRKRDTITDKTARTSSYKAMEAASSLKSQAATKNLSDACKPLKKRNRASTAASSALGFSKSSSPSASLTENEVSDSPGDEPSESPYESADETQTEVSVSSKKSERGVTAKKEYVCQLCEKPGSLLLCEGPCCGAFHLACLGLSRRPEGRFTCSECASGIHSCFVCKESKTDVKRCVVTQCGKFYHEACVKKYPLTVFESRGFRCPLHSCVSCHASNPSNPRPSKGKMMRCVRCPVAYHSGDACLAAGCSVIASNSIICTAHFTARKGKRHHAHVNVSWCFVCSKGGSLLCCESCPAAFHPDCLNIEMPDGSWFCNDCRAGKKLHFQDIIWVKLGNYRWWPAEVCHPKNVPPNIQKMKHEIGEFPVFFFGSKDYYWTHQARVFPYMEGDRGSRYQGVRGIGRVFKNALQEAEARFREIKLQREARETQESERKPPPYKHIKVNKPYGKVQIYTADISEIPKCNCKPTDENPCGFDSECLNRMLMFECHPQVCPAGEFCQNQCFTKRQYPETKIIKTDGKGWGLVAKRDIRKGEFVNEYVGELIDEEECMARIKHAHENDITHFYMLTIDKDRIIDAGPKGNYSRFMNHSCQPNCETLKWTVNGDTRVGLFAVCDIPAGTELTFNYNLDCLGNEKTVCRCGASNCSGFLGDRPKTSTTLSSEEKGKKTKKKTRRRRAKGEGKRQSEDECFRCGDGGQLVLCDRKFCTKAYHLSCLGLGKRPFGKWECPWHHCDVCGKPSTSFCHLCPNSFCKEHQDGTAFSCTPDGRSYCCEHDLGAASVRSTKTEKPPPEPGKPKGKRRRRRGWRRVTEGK", "type": "biochemical"}, "[2]": {"assay": "alpha-synuclein stem-loop luciferase translation blockers – H4 neuroglioma cells, luminescence, confirmation (AID 1988)", "type": "functional, cell-based"}, "[3]": {"biological_target": "Tyrosine-protein kinase JAK3 (Homo sapiens, UniProt P52333)", "type": "functional"}, "[4]": {"biological_target": "Tyrosine-protein kinase JAK2 (Homo sapiens, UniProt O60674)", "type": "functional"}, "[5]": {"biological_target": "Macrophage-stimulating protein receptor (Homo sapiens, UniProt Q04912)", "assay": "Navigating the Kinome. Panel member name: MST1R", "type": "functional"}, "[6]": {"biological_target": "Cyclin-dependent kinase 7 (Homo sapiens, UniProt P50613)", "sequence (P50613 whole entry)": "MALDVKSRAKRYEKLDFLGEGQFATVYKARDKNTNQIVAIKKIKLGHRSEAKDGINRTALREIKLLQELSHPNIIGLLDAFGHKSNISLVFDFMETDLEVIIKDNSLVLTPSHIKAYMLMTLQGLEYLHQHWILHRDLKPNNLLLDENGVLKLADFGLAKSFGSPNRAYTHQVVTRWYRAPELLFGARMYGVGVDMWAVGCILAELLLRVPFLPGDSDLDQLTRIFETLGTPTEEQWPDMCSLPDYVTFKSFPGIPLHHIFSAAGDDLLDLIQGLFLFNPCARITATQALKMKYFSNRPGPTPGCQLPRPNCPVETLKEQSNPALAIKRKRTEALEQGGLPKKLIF", "type": "functional"}, "[7]": {"biological_target": "Casein kinase I isoform alpha (Homo sapiens, UniProt P48729)", "type": "functional"}, "Activin receptor type-1": {"biological_target": "Activin receptor type-1 (Homo sapiens, UniProt Q04771)", "sequence (Q04771 whole entry)": "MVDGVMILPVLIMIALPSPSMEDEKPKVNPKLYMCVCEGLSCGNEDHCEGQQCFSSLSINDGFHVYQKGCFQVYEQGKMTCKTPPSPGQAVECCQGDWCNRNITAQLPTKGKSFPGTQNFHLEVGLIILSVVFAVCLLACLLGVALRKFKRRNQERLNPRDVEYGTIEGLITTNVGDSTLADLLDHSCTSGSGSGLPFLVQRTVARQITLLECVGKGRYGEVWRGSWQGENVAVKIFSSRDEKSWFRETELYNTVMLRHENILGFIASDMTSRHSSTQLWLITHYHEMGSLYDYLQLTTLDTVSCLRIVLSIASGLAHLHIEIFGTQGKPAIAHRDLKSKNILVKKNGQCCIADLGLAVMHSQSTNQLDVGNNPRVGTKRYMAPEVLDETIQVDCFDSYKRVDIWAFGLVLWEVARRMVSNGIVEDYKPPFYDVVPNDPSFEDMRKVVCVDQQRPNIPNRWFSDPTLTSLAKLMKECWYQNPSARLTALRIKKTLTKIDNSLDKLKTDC", "assay": "Navigating the Kinome. Panel member name: ACVR1", "type": "functional"}, "[8]": {"biological_target": "Serine/threonine-protein kinase BRSK1 (Homo sapiens, UniProt Q8TDC3)", "sequence (Q8TDC3 whole entry)": "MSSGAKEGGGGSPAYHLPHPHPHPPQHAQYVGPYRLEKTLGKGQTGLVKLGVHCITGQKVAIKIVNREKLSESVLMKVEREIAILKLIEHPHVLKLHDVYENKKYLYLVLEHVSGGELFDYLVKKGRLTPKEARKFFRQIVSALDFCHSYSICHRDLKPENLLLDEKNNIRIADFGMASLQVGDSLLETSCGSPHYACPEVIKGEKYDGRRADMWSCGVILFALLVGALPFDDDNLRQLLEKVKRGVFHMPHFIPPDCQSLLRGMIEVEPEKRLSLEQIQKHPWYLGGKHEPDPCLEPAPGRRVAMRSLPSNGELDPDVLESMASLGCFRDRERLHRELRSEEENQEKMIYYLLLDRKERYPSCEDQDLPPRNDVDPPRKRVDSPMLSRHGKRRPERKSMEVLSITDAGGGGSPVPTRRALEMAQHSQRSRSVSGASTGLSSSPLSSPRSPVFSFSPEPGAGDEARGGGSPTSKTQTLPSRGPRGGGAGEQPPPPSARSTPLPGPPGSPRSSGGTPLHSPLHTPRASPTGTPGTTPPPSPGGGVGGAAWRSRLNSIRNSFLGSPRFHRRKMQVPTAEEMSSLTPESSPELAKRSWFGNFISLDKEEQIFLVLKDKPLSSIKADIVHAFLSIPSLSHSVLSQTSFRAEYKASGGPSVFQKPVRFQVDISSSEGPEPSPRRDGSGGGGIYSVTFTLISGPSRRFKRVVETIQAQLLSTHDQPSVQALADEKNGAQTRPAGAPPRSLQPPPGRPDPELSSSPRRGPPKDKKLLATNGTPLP", "type": "functional"}, "[9]": {"biological_target": "Fibroblast growth factor receptor 3 (Homo sapiens, UniProt P22607)", "type": "functional"}, "[10]": {"biological_target": "Serine/threonine-protein kinase 3 (Homo sapiens, UniProt Q13188)", "type": "functional"}, "[11]": {"biological_target": "Interleukin-1 receptor-associated kinase 1 (Homo sapiens, UniProt P51617)", "type": "functional"}, "[12]": {"biological_target": "Cell division cycle 7-related protein kinase (Homo sapiens, UniProt O00311)", "type": "functional"}, "[13]": {"biological_target": "Testis-specific serine/threonine-protein kinase 1 (Homo sapiens, UniProt Q9BXA7)", "sequence (Q9BXA7 whole entry)": "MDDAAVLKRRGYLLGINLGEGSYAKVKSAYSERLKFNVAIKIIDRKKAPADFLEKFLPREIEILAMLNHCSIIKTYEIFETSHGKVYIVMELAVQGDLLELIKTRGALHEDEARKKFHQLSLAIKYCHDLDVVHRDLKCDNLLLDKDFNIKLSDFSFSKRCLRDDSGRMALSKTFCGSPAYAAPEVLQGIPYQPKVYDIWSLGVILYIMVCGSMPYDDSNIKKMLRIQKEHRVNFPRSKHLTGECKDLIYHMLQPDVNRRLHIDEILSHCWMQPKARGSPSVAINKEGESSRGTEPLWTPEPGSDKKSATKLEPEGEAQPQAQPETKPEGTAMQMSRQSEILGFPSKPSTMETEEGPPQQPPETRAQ", "type": "functional"}, "Misshapen-like kinase 1": {"biological_target": "Misshapen-like kinase 1 (Homo sapiens, UniProt Q8N4C8)", "type": "functional"}, "Insulin receptor": {"biological_target": "Insulin receptor (Homo sapiens, UniProt P06213)", "sequence (P06213 28-758 limits assumed)": "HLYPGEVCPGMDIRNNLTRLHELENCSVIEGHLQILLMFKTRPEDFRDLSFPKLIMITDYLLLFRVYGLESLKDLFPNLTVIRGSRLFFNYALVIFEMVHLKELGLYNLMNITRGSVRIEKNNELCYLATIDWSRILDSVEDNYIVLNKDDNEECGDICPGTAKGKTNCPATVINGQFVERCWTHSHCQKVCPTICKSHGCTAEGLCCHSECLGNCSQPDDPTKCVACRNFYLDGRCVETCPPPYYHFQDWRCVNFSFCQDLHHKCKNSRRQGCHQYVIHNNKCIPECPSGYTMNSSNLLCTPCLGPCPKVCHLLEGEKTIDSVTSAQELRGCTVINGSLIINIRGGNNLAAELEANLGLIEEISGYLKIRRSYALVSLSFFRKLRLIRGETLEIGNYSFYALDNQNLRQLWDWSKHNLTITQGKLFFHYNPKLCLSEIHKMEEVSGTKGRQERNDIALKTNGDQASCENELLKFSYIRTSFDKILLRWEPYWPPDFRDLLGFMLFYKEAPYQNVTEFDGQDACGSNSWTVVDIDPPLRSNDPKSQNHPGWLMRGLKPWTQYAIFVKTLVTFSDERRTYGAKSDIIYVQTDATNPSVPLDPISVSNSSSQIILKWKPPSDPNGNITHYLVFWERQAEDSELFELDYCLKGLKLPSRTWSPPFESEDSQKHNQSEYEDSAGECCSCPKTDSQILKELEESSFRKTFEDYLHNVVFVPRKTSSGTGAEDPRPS", "sequence (P06213 763-1382 limits assumed)": "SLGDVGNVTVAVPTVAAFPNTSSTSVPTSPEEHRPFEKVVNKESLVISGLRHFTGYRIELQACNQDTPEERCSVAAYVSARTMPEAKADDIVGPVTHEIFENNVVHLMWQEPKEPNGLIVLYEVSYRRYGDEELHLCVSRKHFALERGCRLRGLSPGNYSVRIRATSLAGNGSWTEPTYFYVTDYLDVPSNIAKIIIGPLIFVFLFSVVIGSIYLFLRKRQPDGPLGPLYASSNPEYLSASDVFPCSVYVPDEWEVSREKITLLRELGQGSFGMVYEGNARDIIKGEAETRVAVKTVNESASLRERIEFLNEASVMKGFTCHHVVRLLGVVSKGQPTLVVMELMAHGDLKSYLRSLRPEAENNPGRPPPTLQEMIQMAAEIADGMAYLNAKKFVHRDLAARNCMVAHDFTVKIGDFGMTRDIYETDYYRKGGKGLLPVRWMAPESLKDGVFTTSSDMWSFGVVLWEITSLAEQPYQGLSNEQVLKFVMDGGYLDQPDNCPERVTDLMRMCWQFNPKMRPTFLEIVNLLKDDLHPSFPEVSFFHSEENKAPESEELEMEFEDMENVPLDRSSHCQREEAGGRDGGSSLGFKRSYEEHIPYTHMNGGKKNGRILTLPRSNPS", "type": "functional"}, "[14]": {"biological_target": "MAP kinase-activated protein kinase 3 (Homo sapiens, UniProt Q16644)", "sequence (Q16644 whole entry)": "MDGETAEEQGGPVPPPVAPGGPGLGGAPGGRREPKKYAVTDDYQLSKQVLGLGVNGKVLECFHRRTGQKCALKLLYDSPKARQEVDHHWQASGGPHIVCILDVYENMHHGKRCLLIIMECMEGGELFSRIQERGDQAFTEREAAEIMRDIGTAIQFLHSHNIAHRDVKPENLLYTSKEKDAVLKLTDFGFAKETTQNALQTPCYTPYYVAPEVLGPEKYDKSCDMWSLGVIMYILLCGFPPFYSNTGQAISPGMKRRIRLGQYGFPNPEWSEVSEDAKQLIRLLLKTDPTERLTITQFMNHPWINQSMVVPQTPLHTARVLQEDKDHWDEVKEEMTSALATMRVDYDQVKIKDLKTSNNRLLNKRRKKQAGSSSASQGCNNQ", "type": "functional"}, "[15]": {"biological_target": "Serine/threonine-protein kinase Chk1 (Homo sapiens, UniProt O14757)", "sequence (O14757 whole entry)": "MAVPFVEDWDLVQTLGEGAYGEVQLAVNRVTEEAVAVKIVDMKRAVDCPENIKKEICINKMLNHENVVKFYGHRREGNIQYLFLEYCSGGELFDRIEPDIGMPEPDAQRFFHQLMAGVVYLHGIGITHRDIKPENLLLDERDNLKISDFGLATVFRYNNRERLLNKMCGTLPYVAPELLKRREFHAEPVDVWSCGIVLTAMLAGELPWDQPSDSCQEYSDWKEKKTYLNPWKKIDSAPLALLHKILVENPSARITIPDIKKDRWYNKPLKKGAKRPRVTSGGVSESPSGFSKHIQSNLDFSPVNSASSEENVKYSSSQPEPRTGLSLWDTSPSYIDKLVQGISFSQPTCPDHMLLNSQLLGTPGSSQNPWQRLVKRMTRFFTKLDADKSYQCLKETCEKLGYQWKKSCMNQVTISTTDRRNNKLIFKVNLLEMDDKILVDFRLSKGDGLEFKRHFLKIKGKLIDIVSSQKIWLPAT", "type": "functional"}, "[16]": {"biological_target": "Fibroblast growth factor receptor 1 (Homo sapiens, UniProt P11362)", "type": "functional"}, "[17]": {"biological_target": "Dual specificity tyrosine-phosphorylation-regulated kinase 1A (Homo sapiens, UniProt Q13627)", "type": "functional"}, "[18]": {"biological_target": "Tyrosine-protein kinase Lck (Homo sapiens, UniProt P06239)", "type": "functional"}, "[19]": {"biological_target": "Mitogen-activated protein kinase 1 (Homo sapiens, UniProt P28482)", "type": "functional"}, "[20]": {"biological_target": "Vascular endothelial growth factor receptor 2 (Homo sapiens, UniProt P35968)", "type": "functional"}, "[21]": {"biological_target": "Protein kinase C gamma type (Homo sapiens, UniProt P05129)", "type": "functional"}, "[22]": {"assay": "cytotoxicity toward HCT116 cells – cell-based, CellTiter-Glo luminescence, IC50, dose response (AID 1117332)", "type": "functional", "conditions": "HCT-116"}, "[23]": {"assay": "cytotoxicity toward Colo320 cells – cell-based, CellTiter-Glo luminescence, IC50, dose response (AID 1117334)", "type": "functional", "conditions": "COLO 320"}, "[24]": {"assay": "rise of 4N DNA cells, HeLa – IC50, dose response (AID 1117351)", "type": "functional, cell-based"}, "Cytochrome P450 2D6": {"biological_target": "Cytochrome P450 2D6 (Homo sapiens, UniProt P10635)", "sequence (P10635 whole entry)": "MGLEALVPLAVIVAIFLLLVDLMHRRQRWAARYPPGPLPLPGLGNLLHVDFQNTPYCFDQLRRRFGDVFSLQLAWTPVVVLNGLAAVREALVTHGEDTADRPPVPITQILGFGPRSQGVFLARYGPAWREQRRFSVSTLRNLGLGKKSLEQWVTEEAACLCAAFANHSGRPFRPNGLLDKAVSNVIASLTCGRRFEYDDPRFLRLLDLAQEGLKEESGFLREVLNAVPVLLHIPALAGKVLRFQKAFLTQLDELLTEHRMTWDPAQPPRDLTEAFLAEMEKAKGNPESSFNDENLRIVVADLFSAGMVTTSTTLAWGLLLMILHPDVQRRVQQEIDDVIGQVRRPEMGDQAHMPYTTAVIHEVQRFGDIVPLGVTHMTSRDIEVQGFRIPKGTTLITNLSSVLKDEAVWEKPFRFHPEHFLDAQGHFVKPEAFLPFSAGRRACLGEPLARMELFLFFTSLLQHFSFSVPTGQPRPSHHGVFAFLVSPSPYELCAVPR"}, "[25]": {"assay": "cytotoxicity toward HT-29 cells – cell-based, CellTiter-Glo luminescence, IC50, dose response (AID 1117330)", "type": "functional"}}, "note": "Activity calls are given as the source filed them.", "data": [{"smiles": "O=C1C=C(N2CCOCC2)c2ccccc2C1=O", "values": [{"measurement": "AC50", "setting": "[1]", "value": "1.38 µM (active)"}, {"measurement": "EC50", "setting": "[2]", "value": "8.41 µM (active)"}]}, {"smiles": "N#Cc1ccc2[nH]c(O)c(-c3ccc(CN4CCOCC4)cn3)c2c1", "note": "[AZD-1080]", "values": [{"measurement": "Ki", "setting": "[3]", "value": "> 3.98 µM (inactive)"}, {"measurement": "Ki", "setting": "[4]", "value": "> 2 µM (inactive)"}, {"measurement": "Ki", "setting": "[5]", "value": "> 3.98 µM (inactive)"}, {"measurement": "Ki", "setting": "[6]", "value": "1 µM (active)"}, {"measurement": "Ki", "setting": "[7]", "value": "> 5.01 µM (inactive)"}, {"measurement": "Ki", "setting": "Activin receptor type-1", "value": "> 3.98 µM (inactive)"}, {"measurement": "Ki", "setting": "[8]", "value": "> 7.94 µM (inactive)"}, {"measurement": "Ki", "setting": "[9]", "value": "> 2 µM (inactive)"}, {"measurement": "Ki", "setting": "[10]", "value": "> 7.94 µM (inactive)"}, {"measurement": "Ki", "setting": "[11]", "value": "> 7.94 µM (inactive)"}, {"measurement": "Ki", "setting": "[12]", "value": "> 1.26 µM (inactive)"}, {"measurement": "Ki", "setting": "[13]", "value": "> 1.58 µM (inactive)"}, {"measurement": "Ki", "setting": "Misshapen-like kinase 1", "value": "6.31 µM (active)"}, {"measurement": "Ki", "setting": "Insulin receptor", "value": "> 5.01 µM (inactive)"}, {"measurement": "Ki", "setting": "[14]", "value": "> 10 µM (inactive)"}, {"measurement": "Ki", "setting": "[15]", "value": "> 7.94 µM (inactive)"}, {"measurement": "Ki", "setting": "[16]", "value": "> 3.98 µM (inactive)"}, {"measurement": "Ki", "setting": "[17]", "value": "> 3.16 µM (inactive)"}, {"measurement": "Ki", "setting": "[18]", "value": "> 5.01 µM (inactive)"}, {"measurement": "Ki", "setting": "[19]", "value": "> 7.94 µM (inactive)"}, {"measurement": "Ki", "setting": "[20]", "value": "> 2.51 µM (inactive)"}, {"measurement": "Ki", "setting": "[21]", "value": "> 7.94 µM (inactive)"}]}, {"smiles": "CCc1oc2ccccc2c1C(=O)c1cc(Br)c(O)c(Br)c1", "note": "[BENZBROMARONE]", "values": [{"measurement": "IC50", "setting": "[22]", "value": "1.06 µM (active)"}, {"measurement": "IC50", "setting": "[23]", "value": "> 20 µM (inactive)"}, {"measurement": "IC50", "setting": "[24]", "value": "> 10 µM (inactive)"}, {"measurement": "AC50", "setting": "Cytochrome P450 2D6", "value": "inactive"}, {"measurement": "IC50", "setting": "[25]", "value": "1.14 µM (active)"}]}]}
